According to the supplement of paper PMC10307832:

Key:
Assay in all cases: relative viability (nuclei count vs DMSO), 5 days (fraction); higher = more cells survive
Tosedostat + Pemetrexed = compound: CC(C)C[C@@H](C(=O)N[C@H](C(=O)OC1CCCC1)c1ccccc1)[C@H](O)C(=O)NO [Tosedostat] + Nc1nc2[nH]cc(CCc3ccc(C(=O)N[C@@H](CCC(=O)O)C(=O)O)cc3)c2c(=O)[nH]1 [Pemetrexed] (partner 0.2 µM)
Method in brief: (§1)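 Lung cancer cell lines in 1536-well plates were dosed by pin tool the day after seeding, either with one drug alone or with a fixed anchor-drug dose plus five library-drug doses (not always all listed) in √10 steps. After 5 days, cells were fixed and their nuclei stained in one step (final 0.05% Triton X-100, 1% formaldehyde, 1 ug/ml Hoechst), then counted on 4× images. Relative viability is the nuclei count in treated wells divided by that in vehicle wells. Values are medians of duplicate plates.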

[1] = compound: CC1=NN=C(O1)C2=NN=C(C=C2)N3CCC(CC3)OC4=C(C=CC(=C4)F)Cl + CC(=O)Nc1cccc(-n2c(=O)n(C3CC3)c(=O)c3c(Nc4ccc(I)cc4F)n(C)c(=O)c(C)c32)c1 [Trametinib] (partner 0.02 µM)
Method in brief: as §1

[2] = compound: CC1=NN=C(O1)C2=NN=C(C=C2)N3CCC(CC3)OC4=C(C=CC(=C4)F)Cl + Nc1nc2[nH]cc(CCc3ccc(C(=O)N[C@@H](CCC(=O)O)C(=O)O)cc3)c2c(=O)[nH]1 [Pemetrexed] (partner 0.2 µM)
Method in brief: as §1

[3] = compound: CC1=NN=C(O1)C2=NN=C(C=C2)N3CCC(CC3)OC4=C(C=CC(=C4)F)Cl + COc1cc2c(Oc3ccc(NC(=O)C4(C(=O)Nc5ccc(F)cc5)CC4)cc3F)ccnc2cc1OCCCN1CCOCC1 [Foretinib] (partner 0.25 µM)
Method in brief: as §1

Cell Line | relative viability (Tosedostat + Pemetrexed; first compound 0.02 µM) | relative viability (Tosedostat + Pemetrexed; first compound 0.06325 µM) | relative viability (Tosedostat + Pemetrexed; first compound 0.2 µM) | relative viability (Tosedostat + Pemetrexed; first compound 0.6325 µM) | relative viability (Tosedostat + Pemetrexed; first compound 2 µM) | relative viability ([1]; first compound 0.253 µM) | relative viability ([1]; first compound 0.8 µM) | relative viability ([1]; first compound 2.53 µM) | relative viability ([1]; first compound 8 µM) | relative viability ([2]; first compound 0.253 µM) | relative viability ([2]; first compound 0.8 µM) | relative viability ([2]; first compound 2.53 µM) | relative viability ([2]; first compound 8 µM) | relative viability ([3]; first compound 0.253 µM) | relative viability ([3]; first compound 0.8 µM) | relative viability ([3]; first compound 2.53 µM) | relative viability ([3]; first compound 8 µM)
NCI-H522 | 1.14 | 1.02 | 1.06 | 1.06 | 0.979 | 0.785 | 0.852 | 0.783 | 0.924 | 1.02 | 0.947 | 1.14 | 0.959 |  |  |  | 
HCC-15 | 0.234 | 0.221 | 0.213 | 0.243 | 0.249 | 0.404 | 0.399 | 0.376 | 0.385 | 0.215 | 0.239 | 0.226 | 0.214 | 0.538 | 0.476 | 0.405 | 0.446
A-427 | 0.97 | 1.02 | 0.936 | 0.946 | 0.852 | 0.818 | 0.711 | 0.869 | 0.825 | 1.03 | 0.792 | 0.922 | 0.947 | 1.02 |  | 0.998 | 0.871
NCI-H3122 | 0.206 | 0.213 | 0.21 | 0.312 | 0.325 | 0.173 | 0.224 | 0.224 | 0.232 | 0.138 | 0.142 | 0.16 | 0.143 | 0.431 | 0.409 | 0.438 | 0.397
NCI-H1915 | 0.526 | 0.538 | 0.645 | 0.726 | 0.781 | 0.293 | 0.267 | 0.277 | 0.239 | 0.376 | 0.232 | 0.3 | 0.235 | 0.685 | 0.532 | 0.531 | 0.402
NCI-H1355 | 1.03 | 1.05 | 1.14 | 0.952 | 0.916 | 0.317 | 0.379 | 0.374 | 0.371 | 0.715 | 0.562 | 0.949 | 0.874 | 0.723 | 0.802 | 0.895 | 0.845
NCI-H2023 | 0.22 | 0.23 | 0.292 | 0.285 | 0.212 | 0.36 | 0.419 | 0.388 | 0.301 | 0.188 | 0.189 | 0.235 | 0.182 | 0.594 | 0.613 | 0.64 | 0.619
NCI-H1755 | 0.521 | 0.43 | 0.362 | 0.484 | 0.416 | 0.619 | 0.659 | 0.645 | 0.643 | 0.424 | 0.426 | 0.418 | 0.365 | 0.641 | 0.719 | 0.731 | 0.647
HCC-366 | 0.194 | 0.183 | 0.285 | 0.351 | 0.317 | 0.16 | 0.23 | 0.268 | 0.193 | 0.0851 | 0.121 | 0.174 | 0.15 | 0.46 | 0.574 | 0.466 | 0.343
